What was measured:
human GST-DYRK1A = biological target: T1, human GST-DYRK1A (Homo sapiens, UniProt Q13627); assay: GST-DYRK1A enzyme inhibition, ADP-Glo kinase assay; type: biochemical; settings: ATP 10 μM, GST-DYRK1A full length, read-out: DYRK1 IC50
T1 construct: purified human GST-DYRK1A (full length, Thermo Scientifics) enzyme; purchased Thermo Scientifics
How it was run: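 Full-length enzyme (10 ng) was incubated with 10 μM ATP and a specific substrate for 1 h at 25 °C in 40 mM Tris-HCl pH 7.4, 20 mM MgCl2, 0.5 mg/mL BSA, 50 μM DTT. Luminescence was read against a solvent control, and IC50 values were derived from 3 data sets.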

human GST-CLK1 = biological target: T2, human GST-CLK1 (Homo sapiens, UniProt P49759); assay: GST-CLK1 enzyme inhibition, ADP-Glo kinase assay; type: biochemical; settings: ATP 10 μM, GST-CLK1 129-end
T2 construct: purified human GST-CLK1 (129-end, SignalChem) enzyme; purchased SignalChem
How it was run: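 ADP-Glo luminescence read-out, relative to untreated solvent control, gave IC50 (nM) from triplicate data sets. Reactions ran an hour at 25° C with 3 ng GST-CLK1 (residues 129-end), 10 μM ATP and specific substrate in Tris-HCl pH 7.4 buffer with MgCl2, BSA and DTT.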

T2 sequence (P49759 129-484 limits assumed): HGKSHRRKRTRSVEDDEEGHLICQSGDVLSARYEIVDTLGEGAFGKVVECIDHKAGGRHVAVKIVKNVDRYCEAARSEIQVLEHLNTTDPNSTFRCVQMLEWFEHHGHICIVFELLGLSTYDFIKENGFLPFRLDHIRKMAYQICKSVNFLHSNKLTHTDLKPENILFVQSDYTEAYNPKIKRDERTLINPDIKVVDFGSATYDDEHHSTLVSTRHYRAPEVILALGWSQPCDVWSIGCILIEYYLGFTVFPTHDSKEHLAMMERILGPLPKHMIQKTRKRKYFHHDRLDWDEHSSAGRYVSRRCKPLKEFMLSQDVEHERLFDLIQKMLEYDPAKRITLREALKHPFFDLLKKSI

| SMILES | IC50 (human GST-DYRK1A) | IC50 (human GST-CLK1) |
| --- | --- | --- |
| COCCNc1nc(Nc2ccc(S(=O)(=O)N3CCC(N4CCOCC4)CC3)cc2OC)nc2[nH]cc(C(N)=O)c12 [Example 233, 2-((2-methoxy-4-((4-morpholinopiperidin-1-yl)sulfonyl)phenyl)amino)-4-((2-methoxyethyl)amino)-7H-pyrrolo[2,3-d]pyrimdiine-5-carboxamide] | 301 to 1000 nM | 301 to 1000 nM |
| CCCNc1nc(Nc2ccc(P3(=O)CCN(C4CC4)CC3)cc2OC)nc2[nH]cc(C#N)c12 [Example 282, 2-((4-(1-cyclopropyl-4-oxido-1,4-azaphosphinan-4-yl)-2-methoxyphenyl)amino)-4-(propylamino)-7H-pyrrolo[2,3-d]pyrimidine-5-carbonitrile] | 301 to 1000 nM | 101 to 300 nM |
| COc1cc(S(C)(=O)=O)ccc1Nc1nc(N[C@H]2CCOC2)c2c(C#N)c[nH]c2n1 [Example 108, (S)-2-((2-methoxy-4-(methylsulfonyl)phenyl)amino)-4-((tetrahydrofuran-3-yl)amino)-7H-pyrrolo[2,3-d]pyrimidine-5-carbonitrile] | 301 to 1000 nM | < 100 nM |
| CC(C)Nc1nc(Nc2ccc(C(=O)N3CCOCC3)c3c2OCC3)nc2[nH]cc(C#N)c12 [Example 352, 4-(isopropyl-amino)-2-((4-(morpholine-4-carbonyl)-2,3-dihydro-benzofuran-7-yl)amino)-7H-pyrrolo[2,3-d]pyrimidine-5-carbonitrile] | 301 to 1000 nM | < 100 nM |
| O=C(c1ccc(Nc2nc(N[C@@H]3CCOC3)c3cc[nH]c3n2)c2c1OCCO2)N1CCOCC1 [Example 50, (R)-morpholino(8-((4-((tetrahydrofuran-3-yl)amino)-7H-pyrrolo[2,3-d]pyrimidin-2-yl)amino)-2,3-dihydrobenzo[b][1,4]dioxin-5-yl)methanone] | 301 to 1000 nM | 301 to 1000 nM |
| COc1cc(P(C)(C)=O)ccc1Nc1nc(NC2COC2)c2c(C#N)c[nH]c2n1 [Example 276, 2-((4-(dimethylphosphoryl)-2-methoxyphenyl)amino)-4-(oxetan-3-ylamino)-7H-pyrrolo[2,3-d]pyrimidine-5-carbonitrile] | 301 to 1000 nM | 301 to 1000 nM |
| COc1cc(P2(=O)CCN(C3COC3)CC2)ccc1Nc1nc(NC2CC2)c2c(C#N)c[nH]c2n1 [Example 286, 4-(cyclo-propylamino)-2-((2-methoxy-4-(1-(oxetna-3-yl)-4-oxido-1,4-azaphosphinan-4-yl)phenyl)amino)-7H-pyrrolo[2,3-d]pyrimidine-5-carbonitrile] | 301 to 1000 nM | < 100 nM |
| COc1cc(P(C)(C)=O)ccc1Nc1nc(NC(C)C)c2c(C(F)(F)F)c[nH]c2n1 [Example 371, (4-((4-(isopropylamino)-5-(trifluoromethyl)-7H-pyrrolo[2,3-d]pyrimidin-2-yl)amino)-3-methoxyphenyl) dimethyl phosphine oxide] | 301 to 1000 nM | 101 to 300 nM |
| COc1cc(S(C)(=O)=O)ccc1Nc1nc(NCC(C)C)c2c(C(F)(F)F)c[nH]c2n1 [Example 180, N^4-isobutyl-N^2-(2-methoxy-4-(methylsulfonyl)phenyl)-5-(trifluoromethyl)-7H-pyrrolo[2,3-d]pyrimidine-2,4-diamine] | 301 to 1000 nM | 301 to 1000 nM |
| CC[C@H](C)Nc1nc(Nc2ccc(S(C)(=O)=O)cc2OC)nc2[nH]cc(C#N)c12 [Example 102, (S)-4-(sec-butylamino)-2-((2-methoxy-4-(methylsulfonyl)phenyl)amino)-7H-pyrrolo[2,3-d]pyrimidine-5-carbonitrile] | 301 to 1000 nM | 301 to 1000 nM |
| CCCCNc1nc(Nc2ccc(P(C)(C)=O)cc2OC)nc2[nH]cc(C#N)c12 [Example 275, 4-(butylamino)-2-((4-(dimethylphosphoryl)-2-methoxyphenyl)amino)-7H-pyrrolo[2,3-d]pyrimidine-5-carbonitrile] | 301 to 1000 nM | 101 to 300 nM |
| CCNc1nc(Nc2ccc(P(C)(C)=O)cc2OC)nc2[nH]cc(C(F)(F)F)c12 [Example 368, (4-((4-(ethylamino)-5-(trifluoromethyl)-7H-pyrrolo[2,3-d]pyrimidin-2-yl)amino)-3-methoxyphenyl) dimethyl-phosphine oxide] | 101 to 300 nM | < 100 nM |
| COc1cc(P2(=O)CCN(C3CC3)CC2)ccc1Nc1nc(NC(C)C)c2c(C#N)c[nH]c2n1 [Example 292, 2-((4-(1-cyclopropyl-4-oxido-1,4-azaphosphinan-4-yl)-2-methoxyphenyl)a-mino)-4-(isopropylamino)-7H-pyrrolo[2,3-d]pyrimidine-5-carbonitrile] | 301 to 1000 nM | < 100 nM |
| CCNc1nc(Nc2ccc(C(=O)N3CCOCC3)c3c2OCC3)nc2[nH]cc(C(F)(F)F)c12 [Example 437, (7-((4-(ethylamino)-5-(trifluoromethyl)-7H-pyrrolo[2,3-d]pyrimidin-2-yl)amino)-2,3-dihydrobenzo-furan-4-yl) (morpholino) methanone] | < 100 nM | < 100 nM |
| O=C(c1ccc(Nc2nc(NC3CCCCC3)c3c(C(F)(F)F)c[nH]c3n2)c2c1OCCO2)N1CCC(N2CCOCC2)CC1 [Example 204, (8-((4-(cyclohexylamino)-5-(trifluoromethyl)-7H-pyrrolo[2,3-d]pyrimidin-2-yl)amino)-2,3-dihydrobenzo[b][1,4]dioxin-5-yl)(4-morpholinopiperidin-1-yl)methanone] | 101 to 300 nM | 301 to 1000 nM |
| COc1cc(P2(=O)CCN(C3COC3)CC2)ccc1Nc1nc(NC2CCCC2)c2cc[nH]c2n1 [Example 239, 4-(4-((4-(cyclopentylamino)-7H-pyrrolo[2,3-d]pyrimidin-2-yl)amino)-3-methoxyphenyl)-1-(oxetan-3-yl)-1,4-azaphosphinane 4-oxide] | 301 to 1000 nM | 301 to 1000 nM |
| COc1cc(P(C)(C)=O)ccc1Nc1nc(N[C@@H]2CCOC2)c2c(C#N)c[nH]c2n1 [Example 270, (R)-2-((4-(dimethylphosphoryl)-2-methoxyphenyl)amino)-4-((tetrahydrofuran-3-yl)amino)-7H-pyrrolo[2,3-d]pyrimidine-5-carbonitrile] | 301 to 1000 nM | 301 to 1000 nM |
| COc1cc(P(C)(C)=O)ccc1Nc1nc(NC2CCCCC2)c2c(C(F)(F)F)c[nH]c2n1 [Example 196, (4-((4-(cyclohexylamino)-5-(trifluoromethyl)-7H-pyrrolo[2,3-d]pyrimidin-2-yl)amino)-3-methoxyphenyl)dimethylphosphine oxide] | 101 to 300 nM | 301 to 1000 nM |
| CS(=O)(=O)CCNc1nc(Nc2ccc(C(=O)N3CCOCC3)c3c2OCC3)nc2[nH]cc(C#N)c12 [Example 344, 4-((2-(methyl-sulfonyl)eth-yl)amino)-2-((4-(morpholine-4-carbonyl)-2,3-dihydrobenzo-furan-7-yl)amino)-7H-pyrrolo[2,3-d]pyrimidine-5-carbonitrile] | 301 to 1000 nM | < 100 nM |
| O=C(c1ccc(Nc2nc(NCC3CC3)c3c(C(F)(F)F)c[nH]c3n2)c2c1OCCO2)N1CCOCC1 [Example 201, (8-((4-((cyclopropylmethyl)amino)-5-(trifluoromethyl)-7H-pyrrolo[2,3-d]pyrimidin-2-yl)amino)-2,3-dihydrobenzo[b][1,4]dioxin-5-yl)(morpholino)methanone] | 301 to 1000 nM | < 100 nM |
| COc1cc(P2(=O)CCN(C3CC3)CC2)ccc1Nc1nc(NCC2CC2)c2c(C#N)c[nH]c2n1 [Example 304, 2-((4-(1-cyclopropyl-4-oxido-1,4-azaphosphinan-4-yl)-2-methoxyphenyl)a-mino)-4-((cyclo-propylmeth-yl)amino)-7H-pyrrolo[2,3-d]pyrimidine-5-carbonitrile] | 301 to 1000 nM | 301 to 1000 nM |
| CCCCNc1nc(Nc2ccc(C(=O)N3CCOCC3)c3c2OCCO3)nc2[nH]cc(C(F)(F)F)c12 [Example 208, (8-((4-(butylamino)-5-(trifluoromethyl)-7H-pyrrolo[2,3-d]pyrimidin-2-yl)amino)-2,3-dihydrobenzo[b][1,4]dioxin-5-yl)(morpholino)methanone] | 301 to 1000 nM | 301 to 1000 nM |
| N#Cc1c[nH]c2nc(Nc3ccc(C(=O)N4CC(CO)(CO)C4)c4c3OCCO4)nc(NCC3CCC3)c12 [Example 339, 2-((8-(3,3-bis (hydroxymethyl)azetidine-1-carbonyl)-2,3-dihydrobenzo [b][1,4]dioxin-5-yl)amino)-4-((cyclobutyl-methyl)amino)-7H-pyrrolo[2,3-d]pyrimidine-5-carbonitrile] | 301 to 1000 nM | < 100 nM |
| COc1cc(P2(=O)CCN(C3COC3)CC2)ccc1Nc1nc(NC2COC2)c2c(C#N)c[nH]c2n1 [Example 311, 2-((2-methoxy-4-(1-(oxetan-3-yl)-4-oxido-1,4-azaphosphinan-4-yl)phenyl)amino)-4-(oxetan-3-ylamino)-7H-pyrrolo[2,3-d]pyrimidine-5-carbonitrile] | 301 to 1000 nM | 301 to 1000 nM |
| N#Cc1c[nH]c2nc(Nc3ccc(C(=O)N4CC(CO)(CO)C4)c4c3OCCO4)nc(NC3CCC3)c12 [Example 333, 2-((8-(3,3-bis (hydroxymethyl)azetidine-1-carbonyl)-2,3-dihydrobenzo[b] [1,4]dioxin-5-yl)amino)-4-(cyclobutyl-amino)-7H-pyrrolo[2,3-d]pyrimidine-5-carbonitrile] | 301 to 1000 nM | < 100 nM |

— US20230066011A1, “PYRROLOPYRIMIDINE DERIVATIVE, AND PHARMACEUTICAL COMPOSITION FOR PREVENTING OR TREATING PROTEIN KINASE-RELATED DISEASE COMPRISING SAME AS ACTIVE INGREDIENT” (VORONOI CO., LTD., priority 2019, published 2023)
